From patent publication US12195467B2, “Compound having TrkA inhibitory activity and pharmaceutical composition, for preventing or alleviating pain, containing same as active ingredient” (JBKLAB CO., LTD., priority 2018, dated 2025)

Experiments:
TrkA = target: T1, TrkA (Homo sapiens, UniProt P04629); assay: TrkA inhibitory activity, CycLex TrkA kinase assay/inhibitor screening kit; type: biochemical; conditions: for inhibition at 1 µM: compound 1 μM, read-out: % inhibition rate (based on 1 μM)
T1 construct: purchased MBL International (CycLex) CY-1091
Procedure: The TrkA inhibitory activity of the compounds was evaluated using CycLex® TrkA kinase assay/inhibitor screening kit of MBL International (Cat No. CY-1091). The test was carried out according to the analysis method provided by the manufacturer. The test method is as follows.
1. 1× wash buffer was prepared by diluting 10× wash buffer in ddH2O.
2. 20×ATP solution (1.25 mM) was prepared by adding 1.6 mL of distilled water to the tube containing ATP dissolved in NA2 salt and freeze-dried.
4. A working solution mixture and a solution of the appropriate concentration of the example compound to evaluate the activity of the example compound were prepared and dispensed into a 96-well plate as shown in table below.
5. After dispensing the solutions into a 96-well plate, the plate was incubated at 30° C. for 30 minutes.
6. After incubation of the plate at 30° C. for 30 minutes, 200 μL of 1× wash buffer was added into each well of the plate, followed by washing. This process was repeated 5 times.
7. After washing the plate, 100 μL of HRP conjugated detection antibody (PX-39) was added into each well of the plate, followed by reaction at room temperature for 60 minutes.
8. Upon completion of the reaction, 200 μL of 1× wash buffer was added into each well of the plate, followed by washing. This process was repeated 5 times.
9. After washing the plate, 100 μL of substrate reagent containing chromogenic substrate and tetra-methylbenzidine (TMB) was added into each well of the plate, followed by incubation at room temperature for 5-15 minutes.
10. Upon completion of the reaction, 100 μL of stop solution (1 N H2SO4) was added into each well of the plate, followed by measuring OD450 within 30 minutes.

TrkC = target: T2, TrkC (Homo sapiens, UniProt Q16288); assay: PathHunter eXpress TrkC functional assay kit (U2OS cells, agonist NT-3); type: cell-based; conditions: compound 1 μM, read-out: TrkC % inhibition rate (based on 1 μM)
T2 construct: host or cells: U2OS
Procedure: (§1) The inhibitory activity of the example compounds against TrkB and TrkC was evaluated using PathHunter® eXpress TrkB or TrkC functional assay kit (Product Code: 93-0463E3 and 93-0464E3) of DiscoverX. The test was carried out according to the analysis method provided by the manufacturer. The test was carried out as follows over 2 or 3 days depending on the conditions of cells.
(§2) 1. Before starting the experiment, the cell plating (CP) reagent stored at −80° C. was dissolved in a 37° C. water bath.
(§3) 2. When the CP reagent was dissolved, cell vials for TrkB or TrkC were prepared to be dissolved.
(§4) 3. Two U2OS cell vials (TrkB kit & TrkC kit) stored in liquid nitrogen were thawed.
(§5) 4. 500 μL of CP reagent was added to the thawed cell vial, and the cells were sufficiently mixed by pipetting and transferred to a Conical tube in which 11.5 mL of CP reagent was dispensed.
(§6) 5. 12 mL cells (1×10^6 cells in CP reagent) were seeded on a 96-well tissue culture treated plate (100 μL/well), followed by culture in a 37° C., 5% CO2 humidified incubator for 24 hours or 48 hours.
(§7) Day 2 or Day 3: Treatment of Test Material
(§8) 1. Test material, agonist and antagonist were prepared as stock solutions according to the experiment design. • Test material: 10 mM Stock solution in DMSO • Antagonist (GNF-5837): 10 mM Stock solution in 1.8674 mL DMSO • Agonist: TrkB agonist→BDNF, TrkC agonist→NT-3
(§9) 2. 10 mM stock solutions of teat material and antagonist having the concentration of 22 times more concentrated than the final screening concentration were prepared according to the experiment design.
(§10) 3. Each well of the 96-well culture plate containing cells was treated with 5 μL of the solutions of teat material and antagonist having the concentration of 22 times more concentrated than the final screening concentration (#2), followed by incubation at 37° C. for 60 minutes.
(§11) 4. During the incubation, 10 μg/mL stock solution of each agonist for TrkB and TrkC was prepared using a reconstitution buffer for the purpose of the experiment, and each well of the plate was treated with 5 μL of the prepared solution, followed by incubation at 19-25° C. for 3 hours.
(§12) 5. During the incubation, a detection reagent working solution (4.75 ml Cell assay buffer, 1.25 ml Substrate Reagent 1, 0.25 ml Substrate Reagent 2) was prepared. Upon completion of the incubation, 55 μL of the working solution was added into each well of the plate.
(§13) 7. The plate was incubated at room temperature for 60 minutes in a dark place, and the […] was measured with a luminescence plate reader.

TrkB = target: T3, TrkB (Homo sapiens, UniProt Q16620); assay: PathHunter eXpress TrkB functional assay kit (U2OS cells, agonist BDNF); type: cell-based; conditions: for inhibition at 1 µM: compound 1 μM, read-out: TrkB % inhibition rate (based on 1 μM)
T3 construct: host or cells: U2OS
Procedure: as §1, §2, §3, §4, §5, §6, §7, §8, §9, §10, §11, §12, §13

[1] = tested on: postoperative pain animal model; assay: Pharmacological activity in postoperative pain model (von-Frey mechanical allodynia, 50% withdrawal threshold); type: in vivo, Sprague-Dawley male rats
Procedure: Sprague-Dawley male rats weighing around 150 g (Orient bio., Korea) were used. Rats were raised in an environment where a 12-hour light-dark cycle was maintained, 4 per transparent plastic cage covered with scob as bedding. Food and water were provided freely. To verify the analgesic effect of the example compounds, all rats were anesthetized with O2 delivered from the induction chamber at a ratio of 3:3 of isoflurane and operated. Anesthetized rats were placed on a 37° C. warm plate to prevent hypothermia during the operation. The ipsilateral sole (left) of the hind paw of the experimental animal was disinfected with 10% povidone-iodine solution, and incised to a length of 1 cm with a #11 surgical knife. The incision was made starting from 0.5 cm of the proximal edge of the heel through the skin and fascia on the side of the ipsilateral sole toward the toe. After the incision, a gentle pressure was applied to the incision site to stop the bleeding and the skin was sutured. The surgical site was sterilized with 10% povidone-iodine solution, and gentamicin (8 mg/kg) was administered intraperitoneally to prevent infection. The analgesic effect of the compound on postoperative pain was evaluated in the experimental animals 2 days after the surgery. […] The formula for calculating the 50% withdrawal threshold (g) is as follows. 50% Withdrawal threshold (g)=(10^(x+kd))/10^4 [Mathematical Formula 1] • x=the value of the last tested filament (log unit value). • k=the value indicating positive/negative reaction by up-down method. • d=the value fixed at 0.224 as the average difference between stimuli.

T3 sequence (Q16620 32-822): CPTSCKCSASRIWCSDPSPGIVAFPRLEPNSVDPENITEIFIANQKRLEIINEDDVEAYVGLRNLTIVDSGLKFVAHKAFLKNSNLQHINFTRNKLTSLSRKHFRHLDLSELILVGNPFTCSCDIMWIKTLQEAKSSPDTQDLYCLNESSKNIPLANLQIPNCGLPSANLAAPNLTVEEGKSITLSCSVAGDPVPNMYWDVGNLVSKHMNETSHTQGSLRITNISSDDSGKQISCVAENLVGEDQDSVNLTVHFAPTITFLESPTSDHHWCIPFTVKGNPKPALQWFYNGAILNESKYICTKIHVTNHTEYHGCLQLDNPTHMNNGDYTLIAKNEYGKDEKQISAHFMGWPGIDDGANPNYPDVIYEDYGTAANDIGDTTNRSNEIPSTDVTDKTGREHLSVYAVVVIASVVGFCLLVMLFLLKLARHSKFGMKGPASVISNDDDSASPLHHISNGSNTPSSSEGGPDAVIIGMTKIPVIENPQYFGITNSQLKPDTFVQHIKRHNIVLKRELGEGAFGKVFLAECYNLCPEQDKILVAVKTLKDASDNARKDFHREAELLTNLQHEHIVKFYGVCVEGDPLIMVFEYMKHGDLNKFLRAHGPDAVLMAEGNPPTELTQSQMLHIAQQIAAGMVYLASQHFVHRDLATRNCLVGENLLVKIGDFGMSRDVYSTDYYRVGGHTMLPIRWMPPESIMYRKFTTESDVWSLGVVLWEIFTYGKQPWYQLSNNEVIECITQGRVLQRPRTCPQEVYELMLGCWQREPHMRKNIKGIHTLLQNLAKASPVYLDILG
T2 sequence (Q16288 32-839): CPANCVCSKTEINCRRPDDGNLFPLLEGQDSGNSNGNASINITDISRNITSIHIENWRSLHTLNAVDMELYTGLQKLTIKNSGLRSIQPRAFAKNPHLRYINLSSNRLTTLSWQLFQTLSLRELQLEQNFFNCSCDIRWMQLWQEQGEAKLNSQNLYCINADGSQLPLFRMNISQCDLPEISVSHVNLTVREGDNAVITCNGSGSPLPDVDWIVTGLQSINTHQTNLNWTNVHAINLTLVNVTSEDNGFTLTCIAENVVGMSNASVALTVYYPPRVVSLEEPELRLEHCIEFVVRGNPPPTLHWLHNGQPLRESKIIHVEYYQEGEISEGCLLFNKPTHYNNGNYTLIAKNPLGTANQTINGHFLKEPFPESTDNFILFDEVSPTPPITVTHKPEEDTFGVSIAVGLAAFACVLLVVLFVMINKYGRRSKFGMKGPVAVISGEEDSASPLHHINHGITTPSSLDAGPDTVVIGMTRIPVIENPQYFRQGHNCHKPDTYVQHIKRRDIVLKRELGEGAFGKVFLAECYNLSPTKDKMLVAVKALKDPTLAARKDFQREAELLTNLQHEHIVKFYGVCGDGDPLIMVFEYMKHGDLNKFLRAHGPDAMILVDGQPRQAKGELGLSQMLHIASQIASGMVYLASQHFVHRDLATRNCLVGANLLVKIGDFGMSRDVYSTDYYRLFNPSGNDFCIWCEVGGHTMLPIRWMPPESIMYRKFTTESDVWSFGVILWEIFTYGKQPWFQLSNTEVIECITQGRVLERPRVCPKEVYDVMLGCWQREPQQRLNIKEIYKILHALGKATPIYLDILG
T1 sequence (P04629 33-796): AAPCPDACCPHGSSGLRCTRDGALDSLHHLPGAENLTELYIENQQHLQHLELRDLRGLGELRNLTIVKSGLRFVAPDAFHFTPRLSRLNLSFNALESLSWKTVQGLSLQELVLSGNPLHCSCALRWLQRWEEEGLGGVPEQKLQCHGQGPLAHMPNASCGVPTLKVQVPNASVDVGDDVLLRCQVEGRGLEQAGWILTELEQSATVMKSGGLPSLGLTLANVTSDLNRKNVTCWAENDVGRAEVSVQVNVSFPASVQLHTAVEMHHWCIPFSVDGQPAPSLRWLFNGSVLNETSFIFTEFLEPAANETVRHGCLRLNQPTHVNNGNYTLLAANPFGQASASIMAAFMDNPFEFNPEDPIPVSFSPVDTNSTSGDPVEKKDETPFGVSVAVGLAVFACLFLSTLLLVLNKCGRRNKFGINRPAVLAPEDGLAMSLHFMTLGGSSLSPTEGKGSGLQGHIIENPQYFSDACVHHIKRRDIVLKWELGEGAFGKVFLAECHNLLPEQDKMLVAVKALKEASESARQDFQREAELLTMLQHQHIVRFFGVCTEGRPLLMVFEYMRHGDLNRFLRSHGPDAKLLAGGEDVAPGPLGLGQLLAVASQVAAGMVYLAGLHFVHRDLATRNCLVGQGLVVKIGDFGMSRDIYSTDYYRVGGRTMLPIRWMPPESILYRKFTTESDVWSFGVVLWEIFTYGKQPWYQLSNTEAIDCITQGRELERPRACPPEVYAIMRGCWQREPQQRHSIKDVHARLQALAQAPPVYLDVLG

Compound: Clc1cccc(Nc2n[nH]c3cnc(-c4cccnc4)cc23)c1 [Example 1, N-(3-chlorophenyl)-5-(pyridine-3-yl)-1H-pyrazolo[3,4-c]pyridine-3-amine]
- inhibition at 1 µM (TrkA): 12%

Compound: Clc1ccc(Nc2n[nH]c3cnc(-c4cnn(C5CCNCC5)c4)cc23)cc1Cl [Example 2, N-(3,4-dichlorophenyl)-5-(1-(piperidine-4-yl)-1H-pyrazole-4-yl)-1H-pyrazolo[3,4-c]pyridine-3-amine]
- inhibition at 1 µM (TrkA): 6%

Compound: Clc1cc(Cl)cc(Nc2n[nH]c3cnc(-c4cnn(C5CCNCC5)c4)cc23)c1 [Example 3, N-(3,5-dichlorophenyl)-5-(1-(piperidine-4-yl)-1H-pyrazole-4-yl)-1H-pyrazolo[3,4-c]pyridine-3-amine]
- inhibition at 1 µM (TrkA): 6%

Compound: Cn1cc(-c2cnc3[nH]nc(Nc4cccc(Cl)c4)c3c2)cn1 [Example 4, N-(3-chlorophenyl)-5-(1-methyl-1H-pyrazole-4-yl)-1H-pyrazolo[3,4-b]pyridine-3-amine]
- inhibition at 1 µM (TrkA): 59%

Compound: Cn1cc(-c2cnc3[nH]nc(Nc4ccc(Cl)c(Cl)c4)c3c2)cn1 [Example 5, N-(3,4-dichlorophenyl)-5-(1-methyl-1H-pyrazole-4-yl)-1H-pyrazolo[3,4-b]pyridine-3-amine]
- inhibition at 1 µM (TrkA): 32%

Compound: Cn1cc(-c2cnc3[nH]nc(Nc4cc(Cl)cc(Cl)c4)c3c2)cn1 [Example 6, N-(3,5-dichlorophenyl)-5-(1-methyl-1H-pyrazole-4-yl)-1H-pyrazolo[3,4-b]pyridine-3-amine]
- inhibition at 1 µM (TrkA): 32%

Compound: Clc1cc(Cl)cc(Nc2n[nH]c3ncc(-c4cnn(C5CCNCC5)c4)cc23)c1 [Example 7, N-(3,5-dichlorophenyl)-5-(1-(piperidine-4-yl)-1H-pyrazole-4-yl)-1H-pyrazolo[3,4-b]pyridine-3-amine]
- inhibition at 1 µM (TrkA): 37%

Compound: CN1CCN(c2ccc(C(=O)Nc3n[nH]c4ncc(-c5cnn(C6CCNCC6)c5)cc34)cc2)CC1 [Example 8, 4-(4-methylpiperazine-1-yl)-N-(5-(1-(piperidine-4-yl)-1H-pyrazole-4-yl)-1H-pyrazolo[3,4-b]pyridine-3-yl)benzamide]
- inhibition at 1 µM (TrkA): 99%

Compound: CC(C)NC(=O)Nc1cccc(-c2cnc3[nH]nc(NC(=O)c4ccc(N5CCN(C)CC5)cc4)c3c2)c1 [Example 9, N-(5-(3-(3-isopropylureido)phenyl)-1H-pyrazolo[3,4-b]pyridine-3-yl)-4-(4-methylpiperazine-1-yl)benzamide]
- inhibition at 1 µM (TrkC): -20%
- inhibition at 1 µM (TrkA): 81%
- inhibition at 1 µM (TrkB): 1%

Compound: CN1CCN(c2ccc(C(=O)Nc3n[nH]c4ncc(-c5ccc(F)cc5)cc34)cc2)CC1 [Example 11, N-(5-(4-fluorophenyl)-1H-pyrazolo[3,4-b]pyridine-3-yl)-4-(4-methylpiperazine-1-yl)benzamide]
- inhibition at 1 µM (TrkC): 9%
- IC50 (TrkA): 218 nM
- inhibition at 1 µM (TrkA): 99%
- inhibition at 1 µM (TrkB): 17%

Compound: COc1ccc(Cn2cc(NC(=O)c3ccc(N4CCN(C)CC4)cc3)c3c(-c4cnn(C5CCNCC5)c4)ncnc32)cc1 [Example 16, N-(7-(4-methoxybenzyl)-4-(1-(piperidine-4-yl)-1H-pyrazole-4-yl)-7H-pyrrolo[2,3-d]pyrimidine-5-yl)-4-(4-methylpiperazine-1-yl)benzamide]
- inhibition at 1 µM (TrkA): 8%

Compound: CN1CCN(c2ccc(C(=O)Nc3c[nH]c4ncnc(-c5cnn(C6CCNCC6)c5)c34)cc2)CC1 [Example 17, 4-(4-methylpiperazine-1-yl)-N-(4-(1-(piperidine-4-yl)-1H-pyrazole-4-yl)-7H-pyrrolo[2,3-d]pyrimidine-5-yl)benzamide]
- inhibition at 1 µM (TrkA): -11%

Compound: CN1CCN(c2ccc(C(=O)Nc3c[nH]c4ncnc(-c5cnn(C6CCN(C(=O)OC(C)(C)C)CC6)c5)c34)cc2)CC1 [Example 18, tert-butyl 4-(4-(5-(4-(4-methylpiperazine-1-yl)benzamido)-7H-pyrrolo[2,3-d]pyrimidine-4-yl)-1H-pyrazole-1-yl)piperidine-1-carboxylate]
- inhibition at 1 µM (TrkA): 24%

Compound: CN1CCN(c2ccc(C(=O)Nc3c[nH]c4ncnc(N5CCC(N6CCCC6)CC5)c34)cc2)CC1 [Example 19, 4-(4-methylpiperazine-1-yl)-N-(4-(4-(pyrrolidine-1-yl)piperidine-1-yl)-7H-pyrrolo[2,3-d]pyrimidine-5-yl)benzamide]
- inhibition at 1 µM (TrkA): -1%

Compound: CN1CCN(c2ccc(C(=O)Nc3c[nH]c4ncnc(N5CCC(C(N)=O)CC5)c34)cc2)CC1 [Example 20, 1-(5-(4-(4-methylpiperazine-1-yl)benzamido)-7H-pyrrolo[2,3-d]pyrimidine-4-yl)piperidine-4-carboxamide]
- inhibition at 1 µM (TrkA): 4%

Compound: CN1CCN(c2ccc(C(=O)Nc3c[nH]c4ncnc(N5CCCC(NC(N)=O)C5)c34)cc2)CC1 (stereo not drawn) [Example 21, 4-(4-methylpiperazine-1-yl)-N-(4-(3-ureidopiperidine-1-yl)-7H-pyrrolo[2,3-d]pyrimidine-5-yl)benzamide]
- inhibition at 1 µM (TrkA): 0%

Compound: O=C(Nc1n[nH]c2ncc(-c3cnn(C4CCNCC4)c3)cc12)c1ccc(F)cc1 [Example 22, 4-fluoro-N-(5-(1-(piperidine-4-yl)-1H-pyrazole-4-yl)-1H-pyrazolo[3,4-b]pyridine-3-yl)benzamide]
- inhibition at 1 µM (TrkC): 20%
- IC50 (TrkA): 436 nM
- inhibition at 1 µM (TrkA): 99%
- inhibition at 1 µM (TrkB): -2%

Compound: Oc1c(Cl)cc(-c2c[nH]c3ncnc(NC4CCC(O)CC4)c23)cc1Cl (stereo not drawn) [Example 23, 2,6-dichloro-4-(4-((1s,4s)-4-hydroxycyclohexylamino)-7H-pyrrolo[2,3-d]pyrimidine-5-yl)phenol]
- inhibition at 1 µM (TrkC): 15%
- IC50 (TrkA): 57.9 nM
- inhibition at 1 µM (TrkA): 100%
- IC50 (TrkB): 894 nM
- inhibition at 1 µM (TrkB): 56%

Compound: CN1CCN(c2ccc(C(=O)Nc3c[nH]c4ncnc(-c5cc(Cl)c(O)c(Cl)c5)c34)cc2)CC1 [Example 24, N-(4-(3,5-dichloro-4-hydroxyphenyl)-7H-pyrrolo[2,3-d]pyrimidine-5-yl)-4-(4-methylpiperazine-1-yl)benzamide]
- inhibition at 1 µM (TrkA): 49%

Compound: CC(C)C[C@H](CN)CC(=O)O [Lyrica, Pregabalin, reference compound]
- ED50 ([1]; Rattus norvegicus, po, 48 h): 17.5 mg/kg
- Maximum duration of drug efficacy ([1]; oral, rat postoperative pain model, 2 days after surgery): 1.0 h
